Assay results from BindingDB's records for doi:10.1021/jm00083a002 (Ici Pharmaceuticals Group, 1992).

Legend:
[1] = molecular target: Prolyl 4-hydroxylase (Gallus gallus); experiment: ChEBML_157453
Text: Inhibition of prolyl 4-hydroxylase activity by an indirect assay

[2] = molecular target: prolyl 4-hydroxylase (Gallus gallus); experiment: Compound was evaluated for inhibition of Prolyl 4-hydroxylase activity in cultured embryonic chick tendon cells

Structure (SMILES)	IC50 [1]	IC50 [2]
O=C(Nc1cccc(Cl)c1)c1ccc(C(=O)O)nc1	32.2 µM	
O=C(Nc1ccc(C(=O)O)nc1)c1ccc(Cl)cc1	22.5 µM	
CCOc1ccccc1NC(=O)c1ccc(C(=O)O)nc1	32.9 µM	
O=C(O)c1ccc(NC(=O)c2ccccc2F)cn1	33.8 µM	
O=C(O)c1ccc(NCc2ccc(F)cc2)cn1	31 µM	80 µM
COc1cc(NC(=O)c2ccc(C(=O)O)nc2)cc(OC)c1OC	26.5 µM	
O=C(Nc1ccc(C(=O)O)nc1)c1ccc(F)cc1	51.2 µM	
COc1ccc(NC(=O)c2ccc(C(=O)O)nc2)cc1	21.1 µM	
O=C(Nc1ccc(C(=O)O)nc1)c1ccccc1	25.6 µM	
O=C(O)c1ccc(OCc2ccccc2)cn1	39 µM	
O=C(Nc1ccc(Cl)cc1)c1ccc(C(=O)O)nc1	17.4 µM	
O=C(Nc1ccc([N+](=O)[O-])cc1)c1ccc(C(=O)O)nc1	44 µM	
O=C(O)c1ccc(/C=C/c2ccc(Cl)cc2)cn1	150 µM	
O=C(Nc1ccccc1)c1ccc(C(=O)O)nc1	26.5 µM	

These reach a lower IC50 [1]. Values come first.

IC50 [1]	IC50 [2]	Structure (SMILES)
16.6 µM		COc1ccc(NC(=O)c2ccc(C(=O)O)nc2)c(OC)c1
16.5 µM		Cc1ccc(C(=O)Nc2ccc(C(=O)O)nc2)cc1
16.3 µM		O=C(Nc1ccccc1Cl)c1ccc(C(=O)O)nc1
16.1 µM		O=C(Nc1ccc(F)cc1)c1ccc(C(=O)O)nc1
14.8 µM		COc1ccccc1NC(=O)c1ccc(C(=O)O)nc1
11.3 µM		CN(C)c1ccc(C(=O)Nc2ccc(C(=O)O)nc2)cc1
11.2 µM		CCOc1ccc(C(=O)Nc2ccc(C(=O)O)nc2)cc1
11 µM		O=C(Nc1ccccc1F)c1ccc(C(=O)O)nc1
8.3 µM		Cc1ccc(NC(=O)c2ccc(C(=O)O)nc2)cc1
5 µM		CCOc1ccc(NC(=O)c2ccc(C(=O)O)nc2)cc1
4.1 µM		CN(C)c1ccc(NC(=O)c2ccc(C(=O)O)nc2)cc1
